Assay results taken from patent US12697325B2 (TENNOR THERAPEUTICS (SUZHOU) LIMITED, priority 2021, dated 2026).
Read-outs that look alike come from different tables or passages of the source.

Assays:
[1] = test system: Acinetobacter baumannii strains; assay: Minimum inhibitory concentration (CLSI M07), Example 2, 20 strains; type: cell-based; conditions: for MIC: read-out: MIC
Protocol: The minimum inhibitory concentration (MIC) was determined in accordance with the requirements of the Clinical and Laboratory Standards Institute (CLSI) M07 (for aerobic bacteria).
3.1 The compounds were diluted with DMSO up to 100 times of the highest concentration tested.
The steps of manual dilution are as follows (example): firstly, the compound or antibiotic was diluted to 100 times of the maximum final concentration tested, then 60 μL of compound mother liquor was added to the first column of the 96-well plate, and 30 μL of DMSO was added to each well in the second to the 12th column; 30 μL of the liquid was transferred from the first column to the second column. After being pipetted up and down to even, 30 μL was transferred to the third column, and was diluted in sequence at a 2-fold gradient for a total of 10 times; then 30 μL was removed from each well in the 11th column, then a compound solution diluted at 2-fold gradient was obtained and 1 μL was transferred to a 96-well test plate.
Aerobic bacteria: the strains were inoculated on MHA one day in advance and incubated overnight at 37° C. On the day of the assay, 5-6 single colonies were picked and suspended evenly in saline, and the bacterial concentration was adjusted to the turbidity of 0.5 McFarland standard (concentration is about 1×10^8 CFU/mL). The bacterial suspension was diluted at 200-fold with the corresponding liquid culture medium (Table 1), i.e., the bacterial concentration was ~5×10^5 CFU/ml, and then 100 μL of the liquid was transferred to a 96-well round bottom plate (the 96-well plate with compound prepared in 4.2, Echo method) to obtain the test plate. If the compound was manually diluted, then 99 μL of the solution was transferred into a 96-well round bottom plate. The 96-well round bottom plate obtained above was placed into an incubator at 37° C. and 85% humidity to incubate for 20 h.

[2] = Pharmacokinetics in plasma and bronchoalveolar lavage fluid of female CD-1 mice; type: in vivo; conditions: mouse, female CD-1 mice
Protocol: An appropriate amount of the test drug was accurately weighed and mixed with the appropriate volume of vehicle (5% DMSO+0.5% Tween 80 in normal saline) to obtain a clear solution for the test in Table 9. The formulation solution for injection was prepared to sterile filtration through a 0.22 μm filter prior to administration. The mice were dosed with the drug within 30 min after the formulated solution for injection was prepared. A 1.5 mL of the formulation solution for injection was transferred into a polypropylene microcentrifuge tube for dose verification by LC/UV or LC-MS/MS.
All blood samples were transferred to pre-frozen EDTA-K2 tubes and placed on wet ice until centrifugation. […]
Plasma: approximately 100 μL of blood sample was transferred into pre-cooled commercial EDTA-K2 tubes and placed on wet ice until centrifugation. After the blood samples were centrifuged at approximately 4° C. and 3, 200 g for 10 min, plasma was collected and transferred to pre-labeled 96-well plates or polypropylene tubes, flash frozen on dry ice, and stored at ≤−60° C. until the analysis by LC-MS/MS.
Serum: approximately 100 μL of blood sample was transferred into a tube without anticoagulant and placed on wet ice for approximately 30 min and centrifuged at 4° C. and 3,000 g for 10 min, and the serum was collected and transferred into pre-labeled PP tubes placed on wet ice. After the completion of all the collections, serum samples were stored at −60° C. until being sent to the animal experimental team to determine urea concentration.
Bronchoalveolar lavage fluid (BALF): pre-cooled tracheo-alveolar lavage fluid was injected into the trachea or predefined bronchi. After a full expansion of the lung tissue, the lavage fluid was slowly drawn out with a syringe 30 s later. The lung was lavaged three times. During the last lavage, the lung tissue was gently squeezed to restore the fluid. To prevent contamination of other lung tissues, the corresponding bronchi were ligated. Both lungs of the mice were perfused with 0.8 mL.
[…] Approximately 200 μL of the BALF samples were transferred into a polypropylene tube, rapidly frozen on dry ice, maintained at ≤−60° C., and sent to the animal experimental team to determine urea concentration. The remaining BALF samples (approximately 600 μL) were rapidly frozen on dry ice and maintained at ≤−60° C. until being submitted for drug concentration analysis by LC-MS/MS.

Question: With `CC1(C)[C@H](C(=O)[O][Na+])N2C(=O)C[C@H]2S1(=O)=O` [Sulbactam sodium, sulbactam sodium] as the compound, how does the MIC ([1]; Acinetobacter baumannii, ATCC17978, strain ATCC 17978) read?
Answer: 8 µg/mL

Question: What about the MIC ([1]; Acinetobacter baumannii, ATCC19606, strain ATCC 19606) of the same compound?
Answer: 2 µg/mL

Question: And the MIC ([1]; Acinetobacter baumannii, ATCCBAA1605, strain ATCC-BAA-1605)?
Answer: 32 µg/mL

Question: And the MIC ([1]; Acinetobacter baumannii, ATCCBAA1789, strain ATCC-BAA-1789)?
Answer: 4 µg/mL

Question: And the MIC ([1]; Acinetobacter baumannii, ATCCBAA1790, strain ATCC-BAA-1790)?
Answer: 16 µg/mL

Question: And the MIC ([1]; Acinetobacter baumannii, ATCCBAA1791, strain ATCC-BAA-1791)?
Answer: 8 µg/mL

Question: And the MIC ([1]; Acinetobacter baumannii, ATCCBAA1792, strain ATCC-BAA-1792)?
Answer: 32 µg/mL

Question: And the MIC ([1]; Acinetobacter baumannii, ATCCBAA1793, strain ATCC-BAA-1793)?
Answer: 32 µg/mL

Question: What about the MIC ([1]; Acinetobacter baumannii, ATCCBAA1794, strain ATCC-BAA-1794) of the same compound?
Answer: 8 µg/mL

Question: And the MIC ([1]; Acinetobacter baumannii, ATCCBAA1795, strain ATCC-BAA-1795)?
Answer: 64 µg/mL

Question: And the MIC ([1]; Acinetobacter baumannii, ATCCBAA1796, strain ATCC-BAA-1796)?
Answer: 16 µg/mL

Question: What about the MIC ([1]; Acinetobacter baumannii, ATCCBAA1797, strain ATCC-BAA-1797) of the same compound?
Answer: 8 µg/mL

Question: And the MIC ([1]; Acinetobacter baumannii, ATCCBAA1798, strain ATCC-BAA-1798)?
Answer: 16 µg/mL

Question: What about the MIC ([1]; Acinetobacter baumannii, ATCCBAA1799, strain ATCC-BAA-1799) of the same compound?
Answer: 64 µg/mL

Question: What about the MIC ([1]; Acinetobacter baumannii, ATCCBAA1800, strain ATCC-BAA-1800) of the same compound?
Answer: 32 µg/mL

Question: And the MIC ([1]; Acinetobacter baumannii, strain ARLG-1791)?
Answer: 32 µg/mL

Question: And the MIC ([1]; Acinetobacter baumannii, strain ARLG-1809)?
Answer: 32 µg/mL

Question: And the MIC ([1]; Acinetobacter baumannii, strain ARLG-1852)?
Answer: 16 µg/mL

Question: What about the MIC ([1]; Acinetobacter baumannii, strain ARLG-1853) of the same compound?
Answer: 32 µg/mL

Question: What about the MIC ([1]; Acinetobacter baumannii, strain ARLG-1881) of the same compound?
Answer: 128 µg/mL

Question: What about the MIC50 ([1]; Acinetobacter baumannii, Example 2, 20 strains, read-out: MIC50) of the same compound?
Answer: 32 µg/mL

Question: And the MIC90 ([1]; Acinetobacter baumannii, Example 2, 20 strains, read-out: MIC90)?
Answer: 64 µg/mL

Question: What about the MIC range ([1]; Example 2, 20 strains) of the same compound?
Answer: 2 to 128 µg/mL

Question: What about the MIC of this strain BAA-1795 (component in the combination) ([1]; strain BAA-1795) of the same compound?
Answer: 8 µg/mL

Question: And the “MIC of the strain BAA-1795 (component in the combination)” value ([1]; strain BAA-1795, sulbactam/avibactam 4:1, concentration of the named component)?
Answer: 8 µg/mL

Question: What about the Kp ([2]; BALF/plasma, intravenous, 150 mg/kg, BALF column, read-out: AUC Ratio) of the same compound?
Answer: 0.0248

Question: And the AUC(0-t) ([2]; bronchoalveolar lavage fluid (BALF), intravenous dripping 150 mg/kg, BALF, read-out: AUC0-last, BALF)?
Answer: 1310 ng·h/mL

Question: And the Cmax ([2]; bronchoalveolar lavage fluid (BALF), intravenous dripping 150 mg/kg, BALF, read-out: Cmax, mean BALF concentration)?
Answer: 617 ng/mL

Question: And the MRT last ([2]; bronchoalveolar lavage fluid (BALF), intravenous dripping 150 mg/kg, BALF, read-out: MRT0-last, BALF)?
Answer: 1.72 h

Question: What about the half-life ([2]; bronchoalveolar lavage fluid (BALF), intravenous dripping 150 mg/kg, BALF, read-out: T1/2, BALF (converted)) of the same compound?
Answer: 43.5 min

Question: What about the Tmax ([2]; bronchoalveolar lavage fluid (BALF), intravenous dripping 150 mg/kg, BALF, read-out: Tmax, BALF) of the same compound?
Answer: 3 h

Question: What about the clearance ([2]; intravenous dripping 150 mg/kg, plasma) of the same compound?
Answer: 47.2 mL/min/kg

Question: What about the AUC(0-t) ([2]; intravenous dripping 150 mg/kg, plasma, read-out: AUC0-last, plasma) of the same compound?
Answer: 52900 ng·h/mL

Question: What about the Cmax ([2]; intravenous dripping 150 mg/kg, plasma, read-out: Cmax, mean plasma concentration) of the same compound?
Answer: 19600 ng/mL

Question: What about the MRT last ([2]; intravenous dripping 150 mg/kg, plasma, read-out: MRT0-last, plasma) of the same compound?
Answer: 0.44 h

Question: And the half-life ([2]; intravenous dripping 150 mg/kg, plasma, read-out: T1/2, plasma (converted))?
Answer: 52.4 min

Question: What about the Tmax ([2]; intravenous dripping 150 mg/kg, plasma, read-out: Tmax, plasma) of the same compound?
Answer: 1 h

Question: What about the Vd ([2]; intravenous dripping 150 mg/kg, plasma, read-out: Vdss) of the same compound?
Answer: 1.26 L/kg
